Patent EP4581948A1, “AEROSOLISABLE MATERIAL FOR USE IN AN ARTICLE” (BT DE Investments Inc., priority 2024, dated 2025)

Test: Solubility study: maximum solubility of terpenes in solvent by stepwise addition and visual inspection
Assay type: physicochemical
Conditions: ambient temperature (18 to 22 degrees Celsius); for Max. solubility of terpenes in solvent (% w/w) BA: solvent benzyl alcohol (BA); for Max. solubility of terpenes in solvent (% w/w) PG: solvent propylene glycol (PG); for Max. solubility of terpenes in solvent (% w/w) PG + 8% BA: solvent propylene glycol with 8%w/w benzyl alcohol
Description: A solubility study was carried out to assess the solubility of a range of terpenes in propylene glycol (PG) and benzyl alcohol (BA), and a mixture of propylene glycol (PG) and 8%w/w benzyl alcohol (BA) (materials were sourced from Sigma).
In particular, the maximum solubility at ambient temperature was assessed following the stepwise addition of each terpene to the relevant solvent or solvent mixture. Each terpene was added in aliquots to a solvent (PG, BA or a combination of PG and BA, where the BA was present in an amount of 8%w/w of the PG) and stirred at ambient temperature (18 to 22 degrees Celsius) until the terpene had fully solubilized. The next aliquot of terpene was then added.

Compound	Max. solubility of terpenes in solvent (% w/w) BA	Max. solubility of terpenes in solvent (% w/w) PG	Max. solubility of terpenes in solvent (% w/w) PG + 8% BA
C=C[C@](C)(O)CCC=C(C)C [R- linalool]	73.2 % w/w	72.6 % w/w	74.3 % w/w
C=CC(C)(CCC=C(C)C)OC(C)=O (stereo not drawn) [Linalyl acetate]	34.5 % w/w	1.4 % w/w	6.0 % w/w
C=C1CC/C=C(\C)CC[C@@H]2[C@@H]1CC2(C)C [beta-caryophyllene]	11.0 % w/w	1.1 % w/w	2.4 % w/w
CC(C)=CCCC(C)CCO (stereo not drawn) [beta-citronellol]	71.2 % w/w	47.0 % w/w	70.3 % w/w
